Experimental data as given in US6956040B2, “Oxazolidinone piperazinyl derivatives as potential antimicrobials” (Ranbaxy Laboratories Limited, priority 2001, dated 2005).
Converted amounts (≈) assume the structure as drawn.

What was measured:
S. aureus 25923 = experiment: MIC, agar incorporation method; format: cell-based, Staphylococcus aureus; settings: S. aureus 25923; agar incorporation
From the text: (§1) The compounds of the invention display antibacterial activity when tested by the agar incorporation method. The following minimum inhibitory concentrations (μg/ml) were obtained for representative compounds of the invention which are given below in the following tables.
(§2) • 1) S.aureus ATCC 25923—Staphylococus aureus ATCC 25923 • 2) MRSA 15187—Methicillin Resistant Staphylococcus aureus • 3) Ent. faecalis ATCC 29212—Enterococcus faecalis ATCC 29212 • 4) Ent. faecium 6A—Enterococcus faecium 6A Van®, Cipro® • 5) Strep. pne. ATCC 6303—Streptococcus pneumoniae ATCC 6303 • 6) Strep. pyog. ATCC 19615—Streptococcus pyogenes • 7) S. epidermidis—Staphylococcus epidermidis ATCC 12228
(§3) Briefly, the compounds were dissolved in DMSO and doubling dilution of the compounds were incorporated into Meuller Hilton agar before solidification. Inoculum was prepared by suspending 4 to 5 colonies into 5 ml of normal saline solution and adjusting the turbidity to 0.5 Macfarland turbidity standard tables (1.5×10^8 CFU/ml), after appropriate dilutions, 10^4 CFU/spot was transfered into the surface of dried plate and incubated for 18 hours (24 hours for MRSN studies). The concentration showing no growth of the inoculated culture was recorded as the MIC. Appropriate ATCC standard strains were simultaneously tested and result recorded only when the MIC's against standard antibiotics were within the acceptable range.

MRSA 15187 = experiment: MIC, agar incorporation method; format: cell-based, Staphylococcus aureus; settings: MRSA 15187; agar incorporation
From the text: as §1, §2, §3

VRE 6A = experiment: MIC, agar incorporation method; format: cell-based, Enterococcus faecium; settings: VRE 6A; agar incorporation
From the text: as §1, §2, §3

MRSA 33 = experiment: MIC, agar incorporation method; format: cell-based, Staphylococcus aureus; settings: MRSA 33; agar incorporation
Description: as §1, §3

S. pneum AB 34 = experiment: MIC, agar incorporation method; format: cell-based, Streptococcus pneumoniae; settings: S. pneum AB 34; agar incorporation
Description: as §1, §3

MRSA 562 [1] = experiment: In vivo activity against MRSA 562 (ED50); parameters: species or system Staphylococcus aureus
S. pyogenes 19615 = experiment: MIC, agar incorporation method; format: cell-based, Streptococcus pyogenes; settings: S. pyogenes 19615; agar incorporation
From the text: as §1, §2, §3

S. pneum 6303 = experiment: MIC, agar incorporation method; format: cell-based, Streptococcus pneumoniae; settings: S. pneum 6303; agar incorporation
From the text: as §1, §2, §3

E. faecalis 29212 = experiment: MIC, agar incorporation method; format: cell-based, Enterococcus faecalis; settings: E. faecalis 29212; agar incorporation
From the text: as §1, §2, §3

MRSA 562 [2] = experiment: MIC, agar incorporation method; format: cell-based, Staphylococcus aureus; settings: MRSA 562
Description: as §1, §3

G+ve = experiment: Summary of in vitro activity (MIC) against G+ve bacteria; format: cell-based; settings: for MIC50 / MIC90: G+ve, Number 49; for Geometric Mean of in vitro activity (MIC): Gram +ve
Description: as §1, §3

E. faecalis = experiment: Summary of in vitro activity (MIC) against E. faecalis; format: cell-based, Enterococcus faecalis; settings: E. faecalis; for MIC50 / MIC90: Number 7
Description: as §1, §3

S. pneumoniae = experiment: Summary of in vitro activity (MIC) against S. pneumoniae; format: cell-based, Streptococcus pneumoniae; settings: S. pneumoniae; for MIC50 / MIC90: Number 19
Description: as §1, §3

S. aureus = experiment: Summary of in vitro activity (MIC) against S. aureus; format: cell-based, Staphylococcus aureus; settings: S. aureus; for MIC50 / MIC90: Number 8
Description: as §1, §3

Structure (SMILES)	MIC (S. aureus 25923) [µg/mL]	MIC (MRSA 15187) [µg/mL]	MIC (VRE 6A) [µg/mL]	MIC (MRSA 33) [µg/mL]	MIC (S. pneum AB 34) [µg/mL]	MIC (S. pyogenes 19615) [µg/mL]	MIC (S. pneum 6303) [µg/mL]	MIC (E. faecalis 29212) [µg/mL]	MIC (MRSA 562 [2]; agar incorporation, Table 1) [µg/mL]	other results
CC(=O)NC[C@H]1CN(c2ccc(N3CCN(C(=O)c4ccc(Br)o4)CC3)c(F)c2)C(=O)O1 [Compound No. 04]	2 (≈ 3.93 µM)	2 (≈ 3.93 µM)	1 (≈ 1.96 µM)	2 (≈ 3.93 µM)	1 (≈ 1.96 µM)	2 (≈ 3.93 µM)	1 (≈ 1.96 µM)	2 (≈ 3.93 µM)		ED50 (mg/kg body weight) PO (MRSA 562 [1]): >25 mg/kg body weight
CC(=O)NC[C@H]1CN(c2ccc(N3CCN(Cc4cccs4)CC3)c(F)c2)C(=O)O1 [Compound No. 12, (S)-N-[[3-[3-Fluoro-4-[N-1[4-(2-thienylmethyl)]piperazinyl]-phenyl]-2-oxo-5-oxazolidinyl]methyl]acetamide]	8 (≈ 18.5 µM)	8 (≈ 18.5 µM)	8 (≈ 18.5 µM)	8 (≈ 18.5 µM)	8 (≈ 18.5 µM)	4 (≈ 9.25 µM)	8 (≈ 18.5 µM)	8 (≈ 18.5 µM)	8 (≈ 18.5 µM)	
CC(=O)NC[C@H]1CN(c2ccc(N3CCN(Cc4cc(Br)cs4)CC3)c(F)c2)C(=O)O1 [Compound No. 14, (S)-N-[[3-[3-Fluoro-4-[N-1[4-{2-thienyl(4-bromo)methyl}]-piperazinyl]phenyl]-2-oxo-5-oxazolidinyl]methyl]acetamide]	4 (≈ 7.82 µM)	2 (≈ 3.91 µM)	2 (≈ 3.91 µM)	2 (≈ 3.91 µM)	4 (≈ 7.82 µM)	2 (≈ 3.91 µM)	4 (≈ 7.82 µM)	2 (≈ 3.91 µM)	2 (≈ 3.91 µM)	
CC(=O)NC[C@H]1CN(c2ccc(N3CCN(Cc4cccn4C)CC3)c(F)c2)C(=O)O1 [Compound No. 22, (S)-N[[3-[3-Fluoro-4-[N-1[4-{2-pyrrole(1-methyl)methyl}]-piperazinyl]phenyl]2-oxo-5-oxazolidinyl]methyl]acetamide]	2 (≈ 4.66 µM)	8 (≈ 18.6 µM)	8 (≈ 18.6 µM)	8 (≈ 18.6 µM)	1 (≈ 2.33 µM)	1 (≈ 2.33 µM)	1 (≈ 2.33 µM)	8 (≈ 18.6 µM)	4 (≈ 9.31 µM)	
CC(=O)NC[C@H]1CN(c2ccc(N3CCN(Cc4ccc(Br)s4)CC3)c(F)c2)C(=O)O1 [Compound No. 27]	2 (≈ 3.91 µM)	2 (≈ 3.91 µM)	4 (≈ 7.82 µM)	2 (≈ 3.91 µM)	0.5 (≈ 0.978 µM)	1 (≈ 1.96 µM)	2 (≈ 3.91 µM)	2 (≈ 3.91 µM)	2 (≈ 3.91 µM)	
CC(=O)NC[C@H]1CN(c2ccc(N3CC4C(CN(C)Cc5ccc([N+](=O)[O-])o5)C4C3)c(F)c2)C(=O)O1 (stereo partly drawn) [Compound No. 40, (S)-N-[[3-[3-Fluoro[4-[3-(1α,5α,6α)-6-[N-(5-nitro-2-furylmethyl)-N-methyl]aminomethyl]-3-azabicyclo-[3.1.0]hexane]phenyl]-2-oxo-5-oxazolidinyl]methyl]acetamide]	2 (≈ 3.99 µM)	2 (≈ 3.99 µM)	4 (≈ 7.98 µM)	2 (≈ 3.99 µM)	2 (≈ 3.99 µM)	0.125 (≈ 0.249 µM)		2 (≈ 3.99 µM)	1 (≈ 1.99 µM)	MIC50 (G+ve): 1 µg/mL (≈ 1.99 µM); MIC90 (G+ve): 2 µg/mL (≈ 3.99 µM); Geometric Mean of in vitro activity (MIC) (G+ve): 0.93 µg/mL; Geometric Mean of in vitro activity (MIC) (E. faecalis): 2.38 µg/mL; MIC50 (E. faecalis): 2 µg/mL (≈ 3.99 µM); MIC90 (E. faecalis): 4 µg/mL (≈ 7.98 µM); Geometric Mean of in vitro activity (MIC) (S. pneumoniae): 0.71 µg/mL; MIC50 (S. pneumoniae): 1 µg/mL (≈ 1.99 µM); MIC90 (S. pneumoniae): 1 µg/mL (≈ 1.99 µM); Geometric Mean of in vitro activity (MIC) (S. aureus): 1.83 µg/mL; MIC50 (S. aureus): 2 µg/mL (≈ 3.99 µM); MIC90 (S. aureus): 4 µg/mL (≈ 7.98 µM)
CC(=O)NC[C@H]1CN(c2ccc(N3CCN(Cc4ccc(C=NN)o4)CC3)c(F)c2)C(=O)O1 [Compound No. 62, (S)-N-[[3-[3-Fluoro-4[N-1-[4-{2-furyl-(5-hydrazone)-methyl}]-piperazinyl]-phenyl]-2-oxo-5-oxazolidinyl]-methyl]acetamide]	2 (≈ 4.36 µM)	2 (≈ 4.36 µM)	8 (≈ 17.4 µM)	2 (≈ 4.36 µM)	8 (≈ 17.4 µM)	8 (≈ 17.4 µM)	8 (≈ 17.4 µM)	8 (≈ 17.4 µM)	1 (≈ 2.18 µM)	
CC(=O)NC[C@H]1CN(c2ccc(N3CCN(Cc4ccc(C5OCCCO5)o4)CC3)c(F)c2)C(=O)O1 [Compound No. 66]	2 (≈ 3.98 µM)	2 (≈ 3.98 µM)	16 (≈ 31.8 µM)	2 (≈ 3.98 µM)	8 (≈ 15.9 µM)	8 (≈ 15.9 µM)	8 (≈ 15.9 µM)	16 (≈ 31.8 µM)	2 (≈ 3.98 µM)	
CC1(C)S[C@@H]2[C@H](NC(=O)Cc3ccccc3)C(=O)N2[C@H]1C(=O)O [Penicillin G, reference compound]										MIC50 (G+ve): 4 µg/mL (≈ 12 µM); MIC90 (G+ve): 32 µg/mL (≈ 95.7 µM); Geometric Mean of in vitro activity (MIC) (G+ve): 0.76 µg/mL; Geometric Mean of in vitro activity (MIC) (S. pneumoniae): 2.16 µg/mL; MIC50 (S. pneumoniae): 4 µg/mL (≈ 12 µM); MIC90 (S. pneumoniae): 32 µg/mL (≈ 95.7 µM)

Further lines, with some results ahead:

MIC (S. aureus 25923) [µg/mL]	MIC (MRSA 15187) [µg/mL]	MIC (VRE 6A) [µg/mL]	MIC (MRSA 33) [µg/mL]	MIC (S. pneum AB 34) [µg/mL]	MIC (S. pyogenes 19615) [µg/mL]	MIC (S. pneum 6303) [µg/mL]	MIC (E. faecalis 29212) [µg/mL]	MIC (MRSA 562 [2]; agar incorporation, Table 1) [µg/mL]	Structure (SMILES)	other results
1 (≈ 1.99 µM)	1 (≈ 1.99 µM)	1 (≈ 1.99 µM)	1 (≈ 1.99 µM)	4 (≈ 7.94 µM)	2 (≈ 3.97 µM)	4 (≈ 7.94 µM)	1 (≈ 1.99 µM)	1 (≈ 1.99 µM)	CC(=O)NC[C@H]1CN(c2ccc(N3C[C@@H]4[C@H](C3)[C@H]4N(C)Cc3ccc([N+](=O)[O-])s3)c(F)c2)C(=O)O1 [Compound No. 34, (S)-N-[[3-[3-Fluoro[4-[3-(1α,5α,6α)-6-[N-(5-nitro-2-thienyl-methyl)-N-methyl]amino]-3-azabicyclo-[3.1.0]hexane]phenyl]-2-oxo-5-oxazolidinyl]methyl]acetamide]	
4 (≈ 7.99 µM)	4 (≈ 7.99 µM)	4 (≈ 7.99 µM)	4 (≈ 7.99 µM)	1 (≈ 2 µM)	1 (≈ 2 µM)	1 (≈ 2 µM)	4 (≈ 7.99 µM)	4 (≈ 7.99 µM)	CC(=O)NC[C@H]1CN(c2ccc(N3C[C@@H]4[C@@H](CN(C)C(=O)Cc5cccs5)[C@@H]4C3)c(F)c2)C(=O)O1 [Compound No. 38, (S)-N-[[3-[3-Fluoro[4-[3-(1α,5α,6α)-6-[N-(2-thiopheneacetyl)-N-methyl]aminomethyl]-3-azabicyclo-[3.1.0]hexane]phenyl]-2-oxo-5-oxazolidinyl]methyl]acetamide]	
8 (≈ 15.5 µM)	8 (≈ 15.5 µM)	8 (≈ 15.5 µM)	4 (≈ 7.73 µM)	0.5 (≈ 0.966 µM)	0.5 (≈ 0.966 µM)	0.5 (≈ 0.966 µM)	2 (≈ 3.86 µM)	8 (≈ 15.5 µM)	CC(=O)NC[C@H]1CN(c2ccc(N3C[C@@H]4[C@@H](CN(C)Cc5ccc([N+](=O)[O-])s5)[C@@H]4C3)c(F)c2)C(=O)O1 [Compound No. 39, (S)-N-[[3-[3-Fluorol[4-[3-(1α,5α,6α)-6-[N-(5-nitro-2-thienyl-methyl)-N-methyl]aminomethyl]-3-azabicyclo-[3.1.0]hexane]phenyl]-2-oxo-5-oxazolidinyl]methyl]acetamide]	
1 (≈ 2.04 µM)	1 (≈ 2.04 µM)	0.25 (≈ 0.511 µM)	1 (≈ 2.04 µM)	2 (≈ 4.09 µM)	0.125 (≈ 0.255 µM)	0.5 (≈ 1.02 µM)	0.5 (≈ 1.02 µM)	0.5 (≈ 1.02 µM)	CC(=O)NC[C@H]1CN(c2ccc(N3CCC(N(C)Cc4ccc([N+](=O)[O-])o4)CC3)c(F)c2)C(=O)O1 [Compound No. 50, (S)-N-[[3-[4-[4-(N-methyl-N-2-furyl(5-nitro)methyl)-aminopiperidine-1-yl]-3-fluorophenyl]-2oxo-oxazolidin-5-yl]methyl]acetamide]	MIC50 (G+ve): 1 µg/mL (≈ 2.04 µM); MIC90 (G+ve): 2 µg/mL (≈ 4.09 µM); Geometric Mean of in vitro activity (MIC) (G+ve): 0.72 µg/mL; MIC (MRSA 562 [2]; Table 5): 0.5 µg/mL (≈ 1.02 µM); Geometric Mean of in vitro activity (MIC) (E. faecalis): 0.42 µg/mL; MIC50 (E. faecalis): 0.5 µg/mL (≈ 1.02 µM); MIC90 (E. faecalis): 1 µg/mL (≈ 2.04 µM); Geometric Mean of in vitro activity (MIC) (S. pneumoniae): 1.41 µg/mL; MIC50 (S. pneumoniae): 1 µg/mL (≈ 2.04 µM); MIC90 (S. pneumoniae): 2 µg/mL (≈ 4.09 µM); Geometric Mean of in vitro activity (MIC) (S. aureus): 1 µg/mL; MIC50 (S. aureus): 1 µg/mL (≈ 2.04 µM); MIC90 (S. aureus): 2 µg/mL (≈ 4.09 µM)
